From patent US20240116988A1, “ANTI-ROR1 MACROCYCLIC PEPTIDES AND COMPOSITIONS” (BRISTOL-MYERS SQUIBB COMPANY, priority 2022, published 2024)
Positions of bridges follow the written chain, without caps; N, C: chain ends. Non-standard residues stand in square brackets, D forms with d. Residues, ends and D or L forms follow the SMILES beside them. ξ: configuration not given here. 2Nal = N[C@@H](Cc1ccc2ccccc2c1)C(=O)O; NMeF = CN[C@@H](Cc1ccccc1)C(=O)O; NMeL = CN[C@@H](CC(C)C)C(=O)O; Phg = N[C@H](C(=O)O)c1ccccc1; NMeA = CN[C@@H](C)C(=O)O; Nle = CCCC[C@H](N)C(=O)O; AEEA = NCCOCCOCC(=O)O; ξC = NC(CS)C(=O)O; Sar = CNCC(=O)O

Target: T1, human ROR1 (Homo sapiens, UniProt Q01973)
T1 construct: host or cells: HEK 293T cells, Tet-on system induced with doxycycline
T1 sequence (Q01973 30-937): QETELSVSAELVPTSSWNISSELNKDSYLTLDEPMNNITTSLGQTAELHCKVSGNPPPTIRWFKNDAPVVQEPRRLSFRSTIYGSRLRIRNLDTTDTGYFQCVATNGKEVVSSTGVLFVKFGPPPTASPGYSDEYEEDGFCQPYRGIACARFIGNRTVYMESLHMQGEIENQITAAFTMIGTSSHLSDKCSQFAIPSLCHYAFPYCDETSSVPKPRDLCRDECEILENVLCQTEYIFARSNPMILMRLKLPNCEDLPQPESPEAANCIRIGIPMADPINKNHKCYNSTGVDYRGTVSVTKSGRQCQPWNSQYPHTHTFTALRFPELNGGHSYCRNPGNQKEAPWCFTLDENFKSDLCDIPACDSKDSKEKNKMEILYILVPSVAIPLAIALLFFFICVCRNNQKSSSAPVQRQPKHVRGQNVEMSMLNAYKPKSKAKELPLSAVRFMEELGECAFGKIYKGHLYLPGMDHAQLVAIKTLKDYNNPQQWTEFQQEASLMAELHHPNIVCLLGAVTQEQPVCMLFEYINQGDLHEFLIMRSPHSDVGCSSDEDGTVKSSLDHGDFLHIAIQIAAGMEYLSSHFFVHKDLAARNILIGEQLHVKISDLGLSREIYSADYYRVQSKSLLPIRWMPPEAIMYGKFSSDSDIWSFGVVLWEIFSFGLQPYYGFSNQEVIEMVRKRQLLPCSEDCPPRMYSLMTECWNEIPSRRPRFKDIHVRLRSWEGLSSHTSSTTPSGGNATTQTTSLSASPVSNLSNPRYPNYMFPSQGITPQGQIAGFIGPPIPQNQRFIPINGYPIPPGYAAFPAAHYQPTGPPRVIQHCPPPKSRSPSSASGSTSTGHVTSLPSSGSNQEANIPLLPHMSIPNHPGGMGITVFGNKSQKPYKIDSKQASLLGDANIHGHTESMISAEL
Assay: ROR1 high content cell-based binding assay
Settings: read-out: ROR1 Binding 293T Human HC Cell Based Assay IC50
Summary of the method: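 Doxycycline-induced 293T cells expressing human ROR1, seeded overnight, were treated with compound plus 5-FAM-labeled ROR1-binding probe peptide (30 nM final) for 1 h at 37 °C. After washing and formaldehyde/Hoechst fixation, cell-bound probe fluorescence was read by high-content imaging.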

Row | IC50 [µM] | Compound
1 | 0.083 | CC(C)C[C@@H]1NC(=O)[C@H](Cc2ccc(O)cc2)NC(=O)[C@H](CCC(N)=O)NC(=O)CSC[C@@H](C(=O)NCC(N)=O)NC(=O)[C@H](CC(C)C)NC(=O)[C@H](Cc2ccccc2)N(C)C(=O)[C@H](Cc2ccc(O)cc2)NC(=O)[C@H](Cc2c[nH]c3ccccc23)NC(=O)CNC(=O)[C@H](CO)NC(=O)[C@H](Cc2ccc(O)cc2)NC(=O)[C@H](C(C)C)NC1=O [Example 1088] ({CH2CO}-QYLVYSGWY[NMeF]LCG-NH2; thioether N-12)
2 | 0.077 | CC(C)C[C@@H]1NC(=O)[C@H](Cc2ccc(O)cc2)NC(=O)[C@H](Cc2ccccc2)NC(=O)CSC[C@@H](C(=O)NCCOCCOCC(=O)N[C@@H](CCCCN)C(N)=O)NC(=O)[C@H](CC(C)C)NC(=O)[C@H](Cc2ccccc2)N(C)C(=O)[C@H](Cc2ccc(O)cc2)NC(=O)[C@H](Cc2c[nH]c3ccccc23)NC(=O)CNC(=O)[C@H](CO)NC(=O)[C@H](Cc2ccc(O)cc2)NC(=O)[C@H](C(C)C)NC1=O [Example 1089] ({CH2CO}-FYLVYSGWY[NMeF]LC[AEEA]K-NH2; thioether N-12)
3 | 0.067 | CC(C)C[C@@H]1NC(=O)[C@H](Cc2ccc(O)cc2)NC(=O)[C@H](Cc2ccccc2)NC(=O)CSC[C@@H](C(=O)NCCOCCOCC(=O)O)NC(=O)[C@H](CC(C)C)NC(=O)[C@H](Cc2ccccc2)N(C)C(=O)[C@H](Cc2ccc(O)cc2)NC(=O)[C@H](Cc2c[nH]c3ccccc23)NC(=O)CNC(=O)[C@H](CO)NC(=O)[C@H](Cc2ccc(O)cc2)NC(=O)[C@H](C(C)C)NC1=O [Example 1090] ({CH2CO}-FYLVYSGWY[NMeF]LC[AEEA]-OH; thioether N-12)
4 | 0.565 | CC(C)[C@@H]1NC(=O)[C@H](Cc2c[nH]c3ccccc23)NC(=O)[C@H](Cc2ccc(O)cc2)NC(=O)[C@H](Cc2c[nH]c3ccccc23)NC(=O)CNC(=O)[C@H](Cc2c[nH]c3ccccc23)NC(=O)[C@H](CCCNC(=N)N)NC(=O)[C@H](C(C)C)NC(=O)[C@H](Cc2ccccc2)N(C)C(=O)[C@H](CCCNC(=N)N)NC(=O)[C@H](Cc2ccccc2)NC(=O)CSC[C@@H](C(=O)NCCOCCOCC(=O)O)NC1=O [Example 1091] ({CH2CO}-FR[NMeF]VRWGWYWVC[AEEA]-OH; thioether N-12)
5 | 0.043 | CC(C)C[C@@H]1NC(=O)[C@H](Cc2ccc(O)cc2)NC(=O)[C@H](Cc2ccc3ccccc3c2)NC(=O)CSC[C@@H](C(=O)NCC(N)=O)NC(=O)[C@H](CC(C)C)NC(=O)[C@H](Cc2ccccc2)N(C)C(=O)[C@H](Cc2ccc(O)cc2)NC(=O)[C@H](Cc2c[nH]c3ccccc23)NC(=O)CNC(=O)[C@H](CO)NC(=O)[C@H](Cc2ccc(O)cc2)NC(=O)[C@H](C(C)C)NC1=O [Example 1092] ({CH2CO}-[2Nal]YLVYSGWY[NMeF]LCG-NH2; thioether N-12)
6 | 0.324 | CC(C)C[C@@H]1NC(=O)[C@H](Cc2ccc(O)cc2)NC(=O)[C@H](c2ccccc2)NC(=O)CSC[C@@H](C(=O)NCC(N)=O)NC(=O)[C@H](CC(C)C)NC(=O)[C@H](Cc2ccccc2)N(C)C(=O)[C@H](Cc2ccc(O)cc2)NC(=O)[C@H](Cc2c[nH]c3ccccc23)NC(=O)CNC(=O)[C@H](CO)NC(=O)[C@H](Cc2ccc(O)cc2)NC(=O)[C@H](C(C)C)NC1=O [Example 1093] ({CH2CO}-[Phg]YLVYSGWY[NMeF]LCG-NH2; thioether N-12)
7 | 0.014 | CC(C)C[C@@H]1NC(=O)[C@H](Cc2c[nH]c3ccccc23)NC(=O)[C@H](Cc2ccc(O)cc2)NC(=O)[C@H](Cc2c[nH]c3ccccc23)NC(=O)CNC(=O)[C@H](CC(=O)O)NC(=O)[C@H](Cc2ccc(O)cc2)NC(=O)[C@H](C(C)C)NC(=O)[C@@H]2CCCN2C(=O)[C@H](Cc2ccc(O)cc2)NC(=O)[C@H](Cc2ccccc2)NC(=O)CSC[C@@H](C(N)=O)NC1=O [Example 1094] ({CH2CO}-FYPVYDGWYWLC-NH2; thioether N-12)
8 | 0.011 | CC(C)C[C@@H]1NC(=O)[C@H](Cc2c[nH]c3ccccc23)NC(=O)[C@H](Cc2ccc(O)cc2)NC(=O)[C@H](Cc2c[nH]c3ccccc23)NC(=O)CNC(=O)[C@H](CO)NC(=O)[C@H](Cc2ccc(O)cc2)NC(=O)[C@H](C(C)C)NC(=O)[C@@H]2CCCN2C(=O)[C@H](Cc2ccc(O)cc2)NC(=O)[C@H](Cc2ccccc2)NC(=O)CSC[C@@H](C(N)=O)NC1=O [Example 1095] ({CH2CO}-FYPVYSGWYWLC-NH2; thioether N-12)
9 | 0.004 | CCCC[C@@H]1NC(=O)[C@H](Cc2ccc(O)cc2)NC(=O)[C@H](Cc2c[nH]c3ccccc23)NC(=O)[C@H](C)N(C)C(=O)[C@H](CCCNC(=N)N)NC(=O)[C@H](CO)NC(=O)[C@H](CO)NC(=O)[C@H](Cc2c[nH]c3ccccc23)NC(=O)[C@H](Cc2ccc(O)cc2)NC(=O)[C@H](Cc2ccccc2)NC(=O)CSC[C@@H](C(N)=O)NC(=O)[C@H](CC(C)C)N(C)C1=O [Example 1096] ({CH2CO}-FYWSSR[NMeA]WY[Nle][NMeL]C-NH2; thioether N-12)
10 | 0.063 | CC(C)[C@@H]1NC(=O)CN(C)C(=O)[C@H](CCCNC(=N)N)NC(=O)[C@H](Cc2ccccc2)NC(=O)CSC[C@@H](C(N)=O)NC(=O)[C@H](C(C)C)NC(=O)[C@H](Cc2c[nH]c3ccccc23)NC(=O)[C@H](Cc2ccc(O)cc2)NC(=O)[C@H](Cc2c[nH]c3ccccc23)NC(=O)CNC(=O)[C@H](Cc2c[nH]c3ccccc23)NC(=O)[C@H](CCCNC(=N)N)NC1=O [Example 1097] ({CH2CO}-FR[Sar]VRWGWYWVC-NH2; thioether N-12)
11 | 0.121 | CC(C)C[C@@H]1NC(=O)[C@H](CC(N)=O)NC(=O)[C@H](Cc2ccccc2)N(C)C(=O)CNC(=O)[C@H](Cc2ccc(O)cc2)NC(=O)[C@H](Cc2ccccc2)NC(=O)CSC[C@@H](C(=O)NCC(N)=O)NC(=O)[C@H](Cc2c[nH]c3ccccc23)NC(=O)[C@H](Cc2ccc(O)cc2)NC1=O [Example 1100] ({CH2CO}-FYG[NMeF]NLYWCG-NH2; thioether N-9)
12 | 0.097 | CC(C)C[C@@H]1NC(=O)[C@H](Cc2ccccc2)NC(=O)[C@H](Cc2ccccc2)N(C)C(=O)CNC(=O)[C@H](Cc2ccc(O)cc2)NC(=O)[C@H](Cc2ccccc2)NC(=O)CSC[C@@H](C(N)=O)NC(=O)[C@H](Cc2c[nH]c3ccccc23)NC(=O)[C@H](Cc2ccc(O)cc2)NC1=O [Example 1102] ({CH2CO}-FYG[NMeF]FLYWC-NH2; thioether N-9)
13 | 0.923 | CN1C(=O)CNC(=O)[C@H](Cc2ccc(O)cc2)NC(=O)[C@H](Cc2ccccc2)NC(=O)CSC[C@@H](C(N)=O)NC(=O)[C@H](Cc2c[nH]c3ccccc23)NC(=O)[C@H](Cc2ccc(O)cc2)NC(=O)[C@H](Cc2ccccc2)NC(=O)[C@H](CC(N)=O)NC(=O)[C@@H]1Cc1ccccc1 [Example 1103] ({CH2CO}-FYG[NMeF]NFYWC-NH2; thioether N-9)
14 | 0.031 | CC(C)C[C@@H]1NC(=O)[C@H](CC(N)=O)NC(=O)[C@H](Cc2ccccc2)N(C)C(=O)CNC(=O)[C@H](Cc2ccc(O)cc2)NC(=O)[C@H](Cc2ccccc2)NC(=O)CSCC(C(N)=O)NC(=O)[C@H](Cc2c[nH]c3ccccc23)NC(=O)[C@H](Cc2ccccc2)NC1=O (stereo partly drawn) [Example 1104] ({CH2CO}-FYG[NMeF]NLFW[ξC]-NH2; thioether N-9)
15 | 0.675 | CC(C)C[C@@H]1NC(=O)CNC(=O)[C@H](Cc2ccccc2)N(C)C(=O)CNC(=O)[C@H](Cc2ccc(O)cc2)NC(=O)[C@H](Cc2ccccc2)NC(=O)CSC[C@@H](C(N)=O)NC(=O)[C@H](Cc2c[nH]c3ccccc23)NC(=O)[C@H](Cc2ccc(O)cc2)NC1=O [Example 1105] ({CH2CO}-FYG[NMeF]GLYWC-NH2; thioether N-9)
